Measurements reported in PubChem BioAssay AID1259407 (Chemical Carcinogenesis Research Information System (CCRIS), 2018).
The source made the active and inactive calls. No rule for the calls is given here.

Test system: CCRIS mutagenicity, Ames/micronucleus/aberration tests
Assay: CCRIS mutagenicity studies

**Q.** How did the mutagenic call (Test System: AMES SALMONELLA TYPHIMURIUM, Strain/Indicator: TA100, Metabolic Activation: S-9, Method: PREINCUBATION) turn out when `Nc1cccc(N)c1` was run?
**A.** The mutagenic call was “active; positive”.

**Q.** What about the mutagenic call (Test System: AMES SALMONELLA TYPHIMURIUM, Strain/Indicator: TA1535, Metabolic Activation: HAMSTER, LIVER, S-9, AROCLOR 1254 (10%), Method: PREINCUBATION) of the same molecule?
**A.** The mutagenic call was “inactive; negative”.

**Q.** What about the mutagenic call (Test System: AMES SALMONELLA TYPHIMURIUM, Strain/Indicator: TA1535, Metabolic Activation: HAMSTER, LIVER, S-9, AROCLOR 1254 (30%), Method: PREINCUBATION) of the same molecule?
**A.** Its mutagenic call is “active; positive”.

**Q.** What about the mutagenic call (Test System: AMES SALMONELLA TYPHIMURIUM, Strain/Indicator: TA1535, Metabolic Activation: NONE, Method: PREINCUBATION) of the same molecule?
**A.** Its mutagenic call is “inactive; negative”.

**Q.** What about the mutagenic call (Test System: AMES SALMONELLA TYPHIMURIUM, Strain/Indicator: TA1535, Metabolic Activation: RAT, LIVER, S-9, AROCLOR 1254 (5%), Method: PREINCUBATION) of the same molecule?
**A.** The mutagenic call was “active; positive”.

**Q.** What about the mutagenic call (Test System: AMES SALMONELLA TYPHIMURIUM, Strain/Indicator: TA1535, Metabolic Activation: RAT, LIVER, S-9, AROCLOR 1254 (30%), Method: PREINCUBATION) of the same molecule?
**A.** Its mutagenic call is “inactive; negative”.

**Q.** What about the mutagenic call (Test System: AMES SALMONELLA TYPHIMURIUM, Strain/Indicator: TA1537, Metabolic Activation: RAT, LIVER, S-9, AROCLOR 1254 (4 OR 10%), Method: STANDARD PLATE) of the same molecule?
**A.** The mutagenic call was “active; positive”.

**Q.** And the mutagenic call (Test System: AMES SALMONELLA TYPHIMURIUM, Strain/Indicator: TA1538, Metabolic Activation: RAT, LIVER, S-9, AROCLOR 1254 (4 OR 10%), Method: STANDARD PLATE)?
**A.** Its mutagenic call is “active; positive”.

**Q.** What about the mutagenic call (Test System: AMES SALMONELLA TYPHIMURIUM, Strain/Indicator: TA1538, Metabolic Activation: RAT, LIVER, S-9, PHENOBARBITAL, Method: STANDARD PLATE) of the same molecule?
**A.** The mutagenic call was “active; positive”.

**Q.** What about the mutagenic call (Test System: AMES SALMONELLA TYPHIMURIUM, Strain/Indicator: YG1021, Metabolic Activation: RAT, LIVER, S-9, PHENOBARBITAL AND 5,6-BENZOFLAVONE, Method: PREINCUBATION) of the same molecule?
**A.** Its mutagenic call is “active; positive”.

**Q.** And the mutagenic call (Test System: AMES SALMONELLA TYPHIMURIUM, Strain/Indicator: YG1024, Metabolic Activation: CELL-FREE PLANT MIXTURE TX1MX, Method: PREINCUBATION)?
**A.** Its mutagenic call is “active; positive”.

**Q.** What about the mutagenic call (Test System: AMES SALMONELLA TYPHIMURIUM, Strain/Indicator: YG1024, Metabolic Activation: NONE, Method: PREINCUBATION) of the same molecule?
**A.** The mutagenic call was “inactive; negative”.

**Q.** And the mutagenic call (Test System: AMES SALMONELLA TYPHIMURIUM, Strain/Indicator: YG1024, Metabolic Activation: NONE, Method: STANDARD PLATE)?
**A.** The mutagenic call was “inactive; negative”.

**Q.** What about the mutagenic call (Test System: AMES SALMONELLA TYPHIMURIUM, Strain/Indicator: YG1024, Metabolic Activation: PLANT (PERSEA AMERICANA) S-117, Method: STANDARD PLATE) of the same molecule?
**A.** The mutagenic call was “active; positive”.

**Q.** And the mutagenic call (Test System: AMES SALMONELLA TYPHIMURIUM, Strain/Indicator: YG1024, Metabolic Activation: PLANT (ZEA MAYS) S-9, Method: STANDARD PLATE)?
**A.** The mutagenic call was “active; positive”.

**Q.** What about the mutagenic call (Test System: AMES SALMONELLA TYPHIMURIUM, Strain/Indicator: YG1024, Metabolic Activation: RAT LIVER S-9, AROCLOR 1254, Method: STANDARD PLATE) of the same molecule?
**A.** The mutagenic call was “active; positive”.

**Q.** What about the mutagenic call (Test System: AMES SALMONELLA TYPHIMURIUM, Strain/Indicator: YG1024, Metabolic Activation: RAT LIVER S-9, Method: STANDARD PLATE) of the same molecule?
**A.** The mutagenic call was “active; positive”.

**Q.** What about the mutagenic call (Test System: AMES SALMONELLA TYPHIMURIUM, Strain/Indicator: YG1024, Metabolic Activation: RAT, LIVER, S-9, PHENOBARBITAL AND 5,6-BENZOFLAVONE, Method: PREINCUBATION) of the same molecule?
**A.** The mutagenic call was “active; positive”.

**Q.** What about the mutagenic call (Test System: AMES SALMONELLA TYPHIMURIUM, Strain/Indicator: YG1024, Metabolic Activation: TOBACCO, TX1 CELLS, Method: PREINCUBATION) of the same molecule?
**A.** The mutagenic call was “active; positive”.

**Q.** What about the mutagenic call (Test System: AMES SALMONELLA TYPHIMURIUM, Strain/Indicator: YG1029, Metabolic Activation: NONE, Method: STANDARD PLATE) of the same molecule?
**A.** Its mutagenic call is “inactive; negative”.

**Q.** And the mutagenic call (Test System: AMES SALMONELLA TYPHIMURIUM, Strain/Indicator: YG1029, Metabolic Activation: PLANT (PERSEA AMERICANA) S-117, Method: STANDARD PLATE)?
**A.** Its mutagenic call is “inactive; negative”.

**Q.** What about the mutagenic call (Test System: AMES SALMONELLA TYPHIMURIUM, Strain/Indicator: YG1041, Metabolic Activation: RAT, LIVER, S-9, PHENOBARBITAL AND 5,6-BENZOFLAVONE, Method: PREINCUBATION) of the same molecule?
**A.** Its mutagenic call is “active; positive”.

**Q.** And the mutagenic call (Test System: Ames Salmonella typhimurium, Strain/Indicator: TA98, Metabolic Activation: None, Method: Preincubation)?
**A.** The mutagenic call was “inactive; negative”.

**Q.** And the mutagenic call (Test System: Ames Salmonella typhimurium, Strain/Indicator: TA98, Metabolic Activation: Rat, Liver, S9, Sodium phenobarbital and 5,6-benzoflavone (10%), Method: Preincubation)?
**A.** Its mutagenic call is “active; positive”.

**Q.** And the mutagenic call (Test System: Ames Salmonella typhimurium, Strain/Indicator: TA100, Metabolic Activation: None, Method: Preincubation)?
**A.** Its mutagenic call is “inactive; negative”.

**Q.** And the mutagenic call (Test System: Ames Salmonella typhimurium, Strain/Indicator: TA100, Metabolic Activation: Rat, Liver, S9, Sodium phenobarbital and 5,6-benzoflavone (10%), Method: Preincubation)?
**A.** Its mutagenic call is “inactive; negative”.

**Q.** What about the mutagenic call (Test System: Ames Salmonella typhimurium, Strain/Indicator: TA100, Metabolic Activation: Rat, Liver, S9, Sodium phenobarbital and 5,6-benzoflavone, Method: Preincubation) of the same molecule?
**A.** Its mutagenic call is “inactive; positive (repeat assay negative)”.

**Q.** What about the mutagenic call (Test System: Ames Salmonella typhimurium, Strain/Indicator: TA1535, Metabolic Activation: None, Method: Preincubation) of the same molecule?
**A.** Its mutagenic call is “inactive; negative”.

**Q.** And the mutagenic call (Test System: Ames Salmonella typhimurium, Strain/Indicator: TA1535, Metabolic Activation: Rat, Liver, S9, Sodium phenobarbital and 5,6-benzoflavone (10%), Method: Preincubation)?
**A.** The mutagenic call was “inactive; negative”.

**Q.** And the mutagenic call (Test System: Ames Salmonella typhimurium, Strain/Indicator: TA1537, Metabolic Activation: None, Method: Preincubation)?
**A.** The mutagenic call was “inactive; negative”.

**Q.** What about the mutagenic call (Test System: Ames Salmonella typhimurium, Strain/Indicator: TA1537, Metabolic Activation: Rat, Liver, S9, Sodium phenobarbital and 5,6-benzoflavone (10%), Method: Preincubation) of the same molecule?
**A.** Its mutagenic call is “active; positive”.

**Q.** And the mutagenic call (Test System: E. coli, Strain/Indicator: WP2uvrA/pKM101, Metabolic Activation: None, Method: Preincubation)?
**A.** Its mutagenic call is “inactive; negative”.

**Q.** And the mutagenic call (Test System: E. coli, Strain/Indicator: WP2uvrA/pKM101, Metabolic Activation: Rat, Liver, S9, Sodium phenobarbital and 5,6-benzoflavone (10%), Method: Preincubation)?
**A.** The mutagenic call was “inactive; negative”.

**Q.** And the mutagenic call (Test System: UDS RODENT HEPATOCYTES, Strain/Indicator: THY INCORP (NON-S-PHASE), Metabolic Activation: NONE, Method: AUTORADIOGRAPHY)?
**A.** Its mutagenic call is “inactive; negative”.
